Results from patent US20200240980A1, “METHOD FOR DELAYED RECTIFIER CURRENT ENHANCEMENT, CHARACTERIZATION, AND ANALYSIS IN HUMAN INDUCED PLURIPOTENT STEM CELLS” (The Research Foundation for The State University of New York, priority 2017, published 2020).

Tested on: IKr expression in human iPSCDCMs
Assay: IKr expression in human iPSCDCMs after 48 hour treatment with Endo-Porter transfected morpholino AS oligonucleotide, whole-cell patch clamp
Type: cell-based
Excerpt: Our approach is based on studies showing that morpholino anti-sense (AS) oligonucleotides increased HERG expression in HEK293 cells. We examined the ability of these endoporter (Endo-Porter delivery system) transfected morpholino AS oligonucleotides to increase IKr expression in human iPSCDCMs. The morpholino AS oligonucleotide Endo-Porter, is a proprietary weak-base amphiphilic peptide that was designed to deliver non-ionic substances into the cytosol/nuclear compartment of cells by an endocytosis-mediated process. Following a 48 hour treatment with morpholino AS oligonucleotide (alpha2NS 05Z) significant increase (p<0.05) in IKr expression was observed compared to naïve/vehicle and an inverse morpholino AS oligonucleotide control (MPL ZN9DSZ INV) (Morpholino AS oligonucleotide (n=28): 0.29±0.04 pA/pF, INV control (n=7): 0.11±0.08 pA/pF). […] In naïve/vehicle treated cells we observed a near equal frequency of cells expressing current densities <0.2 pA/pF and >0.2 pA/pF. However, following morpholino AS oligonucleotide treatment cells expressing current densities >0.2 pA/pF increased to 71% p<0.05 as shown in FIG. 4.

5′-CAGAACACAGTAGTGAATCAAAACC-3′ (all phosphorodiamidate morpholino (PMO)) [alpha2NS 05Z, morpholino anti-sense oligonucleotide specific for a polyadenylation signal in Intron 9 of the KCNH2 gene]
cells expressing IKr current densities >0.2 pA/pF (hiPSCDCMs after morpholino AS oligonucleotide treatment, p<0.05, near equal frequency in naïve/vehicle cells, FIG. 4): 71% | IKr current density (hiPSCDCMs, 48 hour treatment, mean ± spread, n=28 (morpholino AS), n=7 (INV control)): 0.29±0.04 pA/pF | distribution of IKr current densities ≤0.2 pA/pF or >0.2 pA/pF versus naïve/vehicle cells (hiPSCDCMs, p<0.05, FIG. 4): significant shift
